Patent publication US12036224B2, “Formulations, methods, kits, and dosage forms for treating atopic dermatitis and for improved stability of an active pharmaceutical ingredient” (Libertas Bio, Inc., priority 2017, dated 2024)
“Also recorded” adds a separate entry of the source.

Key:
Assay type in all cases: in vivo, human
[1] = Phase 1b study in atopic dermatitis: pharmacokinetics
Description: (§1) Upon signing the informed consent, the each subject underwent screening assessments from Day −30 to Day −1 prior to study drug administration. On Day 1 (baseline), eligible subjects were randomized, subjected to the Day 1/baseline assessments and received Compound 1 at 20, 40 or 80 mg or placebo, dependent on cohort and randomization schedule. At this visit, PK/PD samples were collected at predose and up to 8 hours (or up to 12 hours at selected sites). Subjects were monitored in clinic for 2 hours following the first study drug administration. Subjects returned to the clinic on Day 2 for PK and PD samples (24 hours post dose).
(§2) Pre-dose PK and PD samples were collected on Days 8 and 29 (last day of treatment). On Day 15, PK/PD samples were also collected at pre-dose and up to 8 hours post-dose and subjects returned on Day 16 for PK and PD samples (24 hours post dose). Subjects came in for additional safety assessments on Days 8, 22 and 29, as well as at the end of the follow up period (Day 43). Disease assessments were conducted on Days 1, Day 15 and Day 29.
Assessment of PK variables: The following PK parameters for Compound 1 were derived from the concentration-time data of Compound 1 after the first and Day 15 dose administration in the fasted state, as data allowed: Cmax, tmax, AUC0-∞, AUC0-t, AUC0-24, λz, t1/2, CL/F and Vd/F

[2] = test system: subjects with moderate-to severe atopic dermatitis; assay: Phase 1b study in atopic dermatitis: safety and tolerability
Description: (§3) The study conducted was a randomized, double-blind, placebo-controlled, multicenter, sequential dose escalation study in subjects with moderate-to severe atopic dermatitis. The study included a screening period (up to 30 days) and a treatment period for 4 weeks with a 14 day follow up period that concluded with an end-of-study visit. Three sequential cohorts of 20, 40 and 80 mg QD were evaluated. At each dose level a total of 12 subjects were enrolled with 9 subjects receiving Compound 1, and 3 subjects receiving matching placebos.
Assessment of safety: Safety was assessed by AEs, vital signs, 12-lead ECG, physical examination, and laboratory safety assessments.

[3] = test system: subjects with moderate-to severe atopic dermatitis; assay: Phase 1b study in atopic dermatitis: efficacy (EASI, IGA, pruritus NRS); conditions: for EASI50 / EASI75: once daily, after 4 weeks; for average decrease in EASI / average decrease in Pruritis (Itch) Numeric Rating Scale (NRS): week 4
Description: as §3, §1, §2
Compound 1 was administered orally at doses of 20, 40 and 80 mg qd. Compound 1 was made available in 5-mg, 20-mg, and 50-mg strength tablets.
Assessment of efficacy variables: Preliminary efficacy was assessed by changes in the following assessments between Day 1 (baseline) and Days 15 and 29: IGA, EASI, 5-D Pruritus scale, Pruritus Numeric Rating Scale, % BSA involvement of AD, and skin microbiome analysis
The IGA is an assessment scale used in clinical studies to determine severity of AD and clinical response to treatment based on a 5-point scale ranging from 0 (clear) to 4 (severe) (18). The IGA score was assessed at screening, day 1/baseline (pre-dose), and days 15, 29, 43 or early termination.
The Pruritus NRS is a single-question assessment tool that is used to assess the patient's worst itch as a result of AD in the […]. Subjects complete the patient recorded outcome once daily. Patient compliance on the pruritus NRS is followed at each clinic visit. Subjects were instructed on daily reporting at the Baseline visit and are queried for compliance at every clinic visit. Subjects completed the rating scale daily through the last study visit using the scale provided below.
The Eczema Area and Severity Index (EASI) is a validated measure used in clinical practice and clinical trials to assess the severity and extent of AD. Four AD disease characteristics are assessed for severity by the investigator or designee on a scale of “0” (None) through “3” (severe). In addition, the area of AD involvement is assessed as a percentage by body area of head, trunk, upper and lower extremities and converted to a score of 0 to 6. Subjects were subjected to this assessment at the following visits: screening, day 1/baseline (pre-dose), and days 15, 29, 43 or early termination.
Methods: Patients were randomized 1:3 placebo or Compound 1 at 20, 40 or 80 mg once daily for 4 weeks (n=36). Inclusion criteria were Eczema Area and Severity Index (EASI) ≥16, body surface area (BSA) involvement ≥10% and an Investigator's Global Assessment (IGA) of ≥3 at baseline visit. Study objectives included safety/tolerability, efficacy and pharmacokinetic measurements. No concomitant administration of topical corticosteroids or other immunosuppressants was permitted during or prior to study.

[4] = human, plasma, oral, day 15, 20, 40 and 80 mg
[5] = Day 1 to Day 29, 20, 40 and 80 mg

## N#CCC1CCN(c2nc(Nc3ccc(N4CCC(O)CC4)cc3)c3c(=O)[nH]ncc3n2)CC1 [Compound 1, 2-(1-(4-((4-(4-hydroxypiperidin-1-yl)phenyl)amino)-5-oxo-5,6-dihydropyrimido[4,5-d]pyridazin-2-yl)piperidin-4-yl)acetonitrile]
[1]; 20, 40 and 80 mg once daily
  Dose dependence of exposure (Cmax, AUC), in words: dose-dependent Cmax and AUC; also recorded: dose-dependent exposure
  Inter- and intra-individual variability of PK, in words: low inter- and intra-individual variability; also recorded: minimum individual variability and accumulation
[1]; [4]
  Tmax: 2 to 4 h
  half-life: 10 to 14 h
[2]; in vivo
  changes in chemistry lab parameters: No clinically significant changes in chemistry lab parameters except asymptomatic, mild-to-moderate transient elevations of CPK
  changes in hematologic lab parameters including platelets, neutrophils and lymphocytes: No clinically significant changes
  changes in lipid profile: No changes in lipid profile
  serious infections or thromboembolic events: No serious infections or thromboembolic events occurred
[2]; patients with moderate to severe atopic dermatitis, 20, 40, 80 mg once daily
  tolerability: well tolerated; also recorded: very well tolerated at all dose levels
[2]; predominantly Day 1
  most common adverse events: transient, mild headache and nausea
[3]; 20 mg cohort
  EASI50: 29%
  EASI75: 0%
  average decrease in EASI: 21%
  average decrease in Pruritis (Itch) Numeric Rating Scale (NRS): 15%
[3]; 40 mg cohort
  EASI50: 100%
  EASI75: 63%
  average decrease in EASI: 79%
  average decrease in Pruritis (Itch) Numeric Rating Scale (NRS): 47%
[3]; 80 mg cohort, Day 2
  reduction in itch: ~45%
[3]; 80 mg cohort
  EASI50: 88%
  EASI75: 50%
  average decrease in EASI: 70%
  average decrease in Pruritis (Itch) Numeric Rating Scale (NRS): 71%
[3]; 4 weeks
  overall efficacy in moderate to severe AD (in words): clear efficacy; also recorded: robust activity in EASI after 4 weeks
[3]; 20, 40 and 80 mg once daily
  change in pruritus / patient reported itch (in words): early decrease in pruritis; also recorded: significant reduction in patient reported itch was observed as early as 2nd day of treatment; also recorded: early improvements in pruritus
[3]; 40 and 80 mg cohorts
  IGA assessments, subjects reaching 0-1: up to 38%
[3]; [5]
  subjects reached EASI90: 3 subjects
  subjects with 100% clearance: 2 subjects
